Read-outs that look alike come from different tables or passages of the source. Where a SMILES comes first, the peptide text is derived from it. [ ]: non-standard residue; d: D form.

For series [1], the target named is T1, FITC-Aβ42 (Homo sapiens, UniProt P05067).
T1 construct: purchased Bachem M-2585.1000
Nature of the series: Microscale thermophoresis, D3 titrated to FITC-Aβ42. Format: binding. How it is done:
In detail, FITC-Aβ42 was dissolved in 20 mM sodium phosphate, 50 mM NaCl (pH 7.4—slightly alkali), 0.01% (v/v) Tw20 to obtain 80 nM stock solutions. 300 μM D3 was prepared in the same buffer. FITC-Aβ42 was then titrated with D3 solutions in 1:1 serial dilution steps to prepare 16 samples, in which the concentration of FITC-Aβ42 was kept constant at 40 nM, and the starting concentration of D3 was 150 μM. Samples were loaded into standard capillaries, and the thermophoresis was detected using a Monolith NT.115 (NanoTemper Technologies GmbH, Munich, Germany). The experiment was performed with 40% LED power and 60% microscale thermophoresis (MST) power. […] The final concentration of FITC-D3 in each sample was set to 40 nM. The LED power and MST power were adjusted to 30% and 60%, respectively. The on and off time for the IR laser was set to 30 s and 5 s. Since the working concentration of labeled molecules was rather low in this measurement, any signal loss due to surface adsorption might bias the data acquisition. Therefore trace amounts of Tw20 and PEI were used as additives in solution to minimize the unspecific surface adsorption of FITC-Aβ42 and FITC-D3 in capillaries, respectively. All measurements were conducted at 22 °C, and samples were prepared in triplicate.
The data was evaluated with PALMIST software (version 1.2.3) to obtain the dissociation constants. Changes in the normalized fluorescence ( ∆Fn ) with concentrations of the titrant were quantified and fitted with the 1:1 binding model available in the software using a 68.3% confidence interval. The graphic outputs were created using GUSSI (version 1.2.1).

The nature of series [2]: Sedimentation velocity AUC with fluorescence detection, labeled peptide alone. Format: physicochemical. The note with it: sedimentation velocity AUC-FDS of FITC-D3 alone, 0.2 μM, 20 mM sodium phosphate, 50 mM NaCl pH 7.4, 0.0004% PEI. How it is done: All measurements were performed using an XL-A analytical ultracentrifuge (Beckman coulter, Brea, CA, USA). […] All samples were prepared in 20 mM sodium phosphate, 50 mM NaCl (pH 7.4) containing 0.0004% PEI (w/v). Samples were then loaded into 3-mm double-sector titanium cells (Nanolytics, Potsdam, Germany), with each sector containing a 100 μL sample. The detection system uses an excitation laser at 488 nm and an emission cut-off filter at 505 nm to collect fluorescence signals. The amplification factor was adjusted to the same value for all samples for comparability. […] Data was acquired at 20 nm radial resolution. After thorough thermal equilibration the centrifugation was carried out at 60,000 rpm (289,000× g) at 20 °C for 15 h. Carrier proteins, such as albumin and kappa casein, are usually recommended to minimize unspecific surface adsorption for fluorescence-based AUC [56]. All sedimentation profiles were subjected to the software package SEDFIT (version 15.01b) for data evaluation. The data was analyzed with the continuous distribution c(s) Lamm equation model to obtain the sedimentation coefficient distributions. Fitting parameters (Table S1) including the buffer density and viscosity were determined using Sednterp (version 20130813BETA). […]

The target in series [3] is T2, Aβ42 (Homo sapiens, UniProt P05067).
T2 construct: purchased Bachem H-1368.1000
Nature of the series: Absorbance-based AUC, size distribution of Aβ42 after 24 h. Format: biochemical. The note with it: 20 μM Aβ42 with 2 μM D3, 24 h, 20 mM sodium phosphate, 50 mM NaCl pH 7.4, 20 °C; absorbance AUC at 210 nm, 45,000 rpm; compared with Aβ42 alone. How it is done: In brief, 380 μL samples were loaded into 12-mm double-sector aluminum cellsm and were thermally equilibrated prior to the final centrifugation. The centrifugation was performed at 45,000 rpm, 20 °C for 15.5 h. Sedimentation profiles were recorded at 210 nm, with a radial resolution of 20 μm.
All sedimentation profiles were subjected to the software package SEDFIT (version 15.01b) for data evaluation. The data was analyzed with the continuous distribution c(s) Lamm equation model to obtain the sedimentation coefficient distributions. Fitting parameters (Table S1) including the buffer density and viscosity were determined using Sednterp (version 20130813BETA). […] Final graphs were generated using GUSSI (version 1.2.1) and sedimentation coefficients were standardized to s-values in pure water at 20 °C (s20,w).

Series [4] has as its target n-terminally biotinylated Aβ42 monomers. The note with it: read-out: KD for D3 and Aβ42 by SPR; n-terminally biotinylated Aβ42 monomers fixed on sensor chips via biotin-streptavidin; cited from earlier work.

T1 sequence (P05067 672-713 limits assumed): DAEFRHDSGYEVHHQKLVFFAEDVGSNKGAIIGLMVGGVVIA
T2 sequence (P05067 672-713 limits assumed): as above

Usually Kd stands for the free concentration of one partner at which half of the binding sites on the other are occupied at equilibrium, for simple one-to-one binding. Consider `CC(C)C[C@@H](NC(=O)[C@@H](CCCNC(=N)N)NC(=O)[C@H](NC(=O)[C@@H](CCCNC(=N)N)NC(=O)[C@H]1CCCN1C(=O)[C@H](N)CCCNC(=N)N)[C@H](C)O)C(=O)N[C@H](Cc1c[nH]cn1)C(=O)N[C@@H](C(=O)N[C@H](Cc1c[nH]cn1)C(=O)N[C@H](CCCNC(=N)N)C(=O)N[C@H](CC(N)=O)C(=O)N[C@H](CCCNC(=N)N)C(N)=O)[C@H](C)O` [D3] (H-[dR][dP][dR][dT][dR][dL][dH][dT][dH][dR][dN][dR]-NH2), for which the Kd is approximately 400 nM in series [1] (KD for D3 and Aβ42 (summary of both MST setups), both possible setups); 270 nM in series [1] (MST, 40 nM FITC-Aβ42, D3 from 150 μM in 1:1 serial dilution, 20 mM sodium phosphate, 50 mM NaCl pH 7.4, 0.01% Tw20, 22 °C, 1:1 binding model (PALMIST), brackets = 68.3% confidence interval, triplicate, read-out: KD of D3 binding to FITC-Aβ42); 88 nM in series [1] (MST, 40 nM FITC-Aβ42, 5 mM sodium phosphate, 50 mM NaCl pH 7.4, 0.01% Tw20, 22 °C, 1:1 binding model, brackets = 68.3% confidence interval, read-out: KD of FITC-Aβ42 and D3 in low ionic strength buffer); approximately 4000 nM in series [4]. In series [2], the “Self-assembly or aggregation of D3 in solution” value is “does not form any self-assemblies or aggregates”. Moreover, in series [3], the “Size distribution of Aβ42 samples with D3 after 24 h” value is reported as “no such large aggregates”.

Source of the values: PMC6600523, “Interference with Amyloid-β Nucleation by Transient Ligand Interaction” (Molecules, 2019).
